# Legend:
# [1] = system: anesthetized rabbit; test: In Vivo Comparative Erectile Responses—I: intracavernosal pressure after intracavernosal injection; parameters: species or system Male New Zealand white rabbits
# Protocol: (§1) Male New Zealand white rabbits weighing 2.5 kg were used as the animal model. Animals were first relaxed with an i.m. injection of 25 mg/kg ketamine prior to anesthesia with a bolus i.v. injection of 10 mg/kg Profol and maintained with i.v. infusion at 0.5 mg/kg/minutes. Ventilation of the animals was performed with 1% halothane plus 0.8 L/min O2 and 1 L/min N2O. A 22 gauge angiocatheter was placed in the femoral artery for measurement of systemic blood pressure. A dorsal incision was made in the penis and the corpora cavemosum exposed and cannulated with a 21 gauge butterfly needle to measure intracavernosal pressure.
# (§2) Drugs at various concentrations were delivered intracavernosally at a volume of 150 μl through a 25 gauge needle. A 150 μl solution of a mixture of papaverine ([…]), phentolamine ([…]) and prostaglandin El (10 μg/ml) (pap/phent/PGE1) was injected in the corpora as a standard solution for comparison with the response of yohimbine, Example 1, Example 2, and the combination of yohimbine and Example 1. This pap/phent/PGE1 mixture is considered to cause a maximal erection-inducing effect.
# [2] = system: anesthetized rabbit; test: In Vivo Comparative Erectile Responses—I: systemic blood pressure after intracavernosal injection; parameters: species or system Male New Zealand white rabbits; conditions: 500 μg, FIG. 5A
# Protocol: as §1, §2
# [3] = system: anesthetized rabbit; test: In vivo Comparative Erectile Responses—II: intracavernosal blood pressure (ICP) and duration; parameters: species or system White New Zealand male rabbits
# Protocol: White New Zealand male rabbits (2.6-3.0 kg) were anesthetized with pentobarbital sodium (30 mg/kg). The femoral artery was exposed and indwelled with PE 50 tubing connected to a transducer for recording systemic arterial blood pressure. The ventral aspect of the penis was then exposed via surgical cut and intracavernosal blood pressure was measured using a 23 gauge needle inserted to the corpus cavernosum. The contralateral corpus cavemosum was implanted with a 23 gauge needle for the administration of drugs.
# Following all surgical procedures, rabbits were allowed to rest for 10 minutes during which intracavernosal blood pressure (ICP) and mean arterial blood pressure (MABP) were continuously recorded.
# Drugs at various concentrations were prepared as aqueous solution (injection volume of 200 μL). Following drug injection the tubing was flushed with 100 μL distilled water. All drug treatments were administered after stable intracavernosal and systemic blood pressures were established. If an increase in intracavernosal blood pressure (ICP) was observed, the effect was monitored throughout its entire duration.
# The following parameters were obtained from each experimental recording: (i) Maximum ICP (mm Hg), (ii) Duration (minutes), defined as the time in minutes, that the increase in ICP is greater than the 50% difference between baseline and maximum response. Data were analyzed using ANOVA statistical analysis (p<0.05).
molecule,measurement,setting,value
2-Acyl-17α(3-methyl-3-(nitrosothio)butanoxy)yohimban-16α-carboxylic Acid methyl ester hydrochloride Salt [Example 2],duration of the erectile response,"[1]; 500 μg and 1 mg, FIG. 4",longer duration of action compared to yohimbine
same,percent peak erectile response relative to pap/phent/PGE1,[1]; 500 μg dose,equipotent to the standard dose of pap/phent/PGE1
same,percent peak erectile response relative to pap/phent/PGE1,[1]; 1 mg dose,at least equal to or more efficacious than the standard dose of the pap/phent/PGE1 mixture
same,effect on systemic blood pressure,[2],did not produce any effect on systemic blood pressure
"N[C@@H](CCC(=O)N[C@@H](CSN=O)C(=O)NCC(=O)O)C(=O)O [Example 1, 4-(N-{(1R)-1-[N-(carboxymethyl)carbamoyl]-2-(nitrosothio)ethyl}carbamoyl)(2S)-2-aminobutanoic Acid]",percent peak erectile response relative to pap/phent/PGE1,[1]; 500 μg dose,near maximal response
same,duration of the erectile response,"[1]; 500 μg, FIG. 2",much longer duration of action
"Cc1cc(OCCN(C)C)c(C(C)C)cc1OC(=O)CC(C)(C)SN=O.Cl [Example 6, 4-[2-(Dimethylamino)ethoxy]-2-methyl-5-(methylethyl)phenyl 3-methyl-3-(nitrosothio)butanoate Hydrochloride]",percent peak erectile response relative to pap/phent/PGE1,[1]; 1 mg dose,more efficacious than 1 mg moxisylyte
same,duration of the erectile response,"[1]; 1 mg, FIG. 7",longer duration of erectile response compared to 1 mg moxisylyte
same,duration of the erectile response,"[1]; 2 mg, FIG. 7",much longer duration of action compared to 2 mg moxisylyte
"COC(=O)[C@@H]1[C@H]2C[C@H]3c4[nH]c5ccccc5c4CCN3C[C@@H]2CC[C@@H]1O [yohimbine, reference compound]",percent peak erectile response relative to pap/phent/PGE1,"[1]; 150 μg and 500 μg, FIG. 1",dose dependently induced erectile response
same,duration of the erectile response,"[1]; submaximal (150 μg) and maximal (500 μg) efficacy doses, FIG. 2",very short duration of action
"Cc1cc(OCCN(C)C)c(C(C)C)cc1OC(=O)CCC(=O)OCCC1(SN=O)C2CC3CC(C2)CC1C3.O=C(O)/C=C/C(=O)O (centres unmarked) [Example 10, 4-[2-(dimethylamino)ethoxy]-2-methyl-5-(methylethyl)phenyl 2-[2-(nitrosothio)adamantan-2-yl]ethyl butane-1,4-dioate, Fumaric Acid Salt]","peak erectile response, increase of ICP (magnitude)","[3]; 1.07 mg, FIG. 10",moderate
same,duration of the erectile response,"[3]; 1.07 mg, FIG. 11",short-lasting
same,duration of increase in intracavernosal pressure,[3]; 2.13 mg,robust effect
same,magnitude of increase in intracavernosal pressure,[3]; 2.13 mg,robust effect
same,duration of increase in intracavernosal pressure,[3]; 4.26 mg,robust effect
same,duration of the erectile response,[3]; 4.26 mg,exceeded 120 minutes
same,magnitude of increase in intracavernosal pressure,[3]; 4.26 mg,robust effect
"4-[2-(Dimethylamino)ethoxy]-2-methyl-5-(methylethyl)phenyl 2-({N-[2-methyl-2-(nitrosothio)propyl]carbamoyl}methoxy)acetate, Fumaric Acid Salt [Example 9]",doses needed to produce a robust increase of ICP,"[3]; 0.2-1.6 mg tested, FIG. 8 to FIG. 11",lower than the doses of Example 10
same,duration of the erectile response,"[3]; 0.2-1.6 mg tested, FIG. 9",somewhat shorter than that of Example 10

# From US6469065B1, “Nitrosated and nitrosylated α-adrenergic receptor antagonist, compositions and methods of use” (NitroMed, Inc., priority 1996, dated 2002)
